The text below walks through data of publication PMC4718940, “Preclinical studies of 5-fluoro-2′-deoxycytidine and tetrahydrouridine in pediatric brain tumors” (Journal of Neuro-Oncology, 2015).

What all share (assay type): cell-based
The test system of assay [1] is mouse CPC neurospheres (CPC300). In words: 72 h dose response, CellTiter-Glo, mouse CPC neurospheres. Particulars: 72 hr treatment, 384-well; for EC50: read-out: CPC300 EC50. As to the method: (§1) In the Discovery Phase, the initial studies included the screen of a library of 9 compounds against epigenetic regulators at a single concentration and a dose-response on G3 MB, EP, and CPC tumor cells, as well as HEPG2 and BJ (Fig. 1). The library and dose response studies are described in the Supplementary Material.
(§2) Briefly, cells (see Supplementary Table S2 for cell identity) were plated in 384-well plates (Corning) in 30 µL of supplemented neurobasal medium by using an automated plate filler (Wellmate, Matrix). After 24 hr, 28 nL of compound was transferred via pin tool, resulting in a final drug concentration of approximately 4 nM to 10 µM. After 72 hr of treatment, CellTiter-Glo reagent (Promega) was added, and the luminescence signal was measured using an automated Envision plate reader (Perkin-Elmer). Luminescence data were normalized by log10-transformation prior to calculating the percentage of inhibition using the following equation: 100 × (negative control mean − compound value)/(negative control mean − positive control mean). Our negative control represents cells treated with 0.1% DMSO with 0% inhibition. Cells treated with 35 µM cycloheximide (G3 MB tumor spheres) or 10 µM panobinostat (EP and CPC cells) were used as positive controls with 100% inhibition. The response of cells to the compounds were normalized to that of the positive controls present in each plate screened, shown in the Y axis of the dose-response curve. […] Unless otherwise reported, the y-axis for each dose response curve in the figures was independently normalized to the range from 0 to 1 and therefore reported as ‘relative growth inhibition’. High through put assay data were analyzed by using our in-house Robust Interpretation of Screening Experiments (RISE) application that was written in Pipeline Pilot (Accelrys, v. 8.5) and R (R Development Core Team).

For assay [2], the system named is mouse EP neurospheres. The assay is described as follows: 72 h dose response, CellTiter-Glo, mouse EP neurospheres. Particulars: 72 hr treatment, 384-well; for EC50: read-out: EP EC50. As to the method:
as §1, §2

Assay [3] relates to Mouse G3 MB Myc1 neurospheres. In words: 72 h dose response, CellTiter-Glo, mouse G3 MB neurospheres. Particulars: 72 hr treatment, 384-well; for EC50: read-out: G3-MB EC50. As to the method:
as §1, §2

Where two headings read alike, the source gives them in different places.

For the molecule `Nc1ncn([C@H]2C[C@H](O)[C@@H](CO)O2)c(=O)n1` [Decitabine], the EC50 in assay [1] (Mus musculus) was found to be 6700 nM; in assay [2] (Mus musculus), 500 nM; in assay [3] (Mus musculus), 960 nM.
On to `CC(/C=C/C(=O)NO)=C\[C@@H](C)C(=O)c1ccc(N(C)C)cc1` [Trichostatin A], for which the figures for the EC50 in assay [1], in assay [2] and in assay [3] were 2100 nM, 400 nM and 100 nM, respectively.
Turning to `O=c1ncccn1[C@@H]1O[C@H](CO)[C@@H](O)[C@H]1O` [Zebularin, Zebularine], the “CPC300 EC50” value in assay [1] is listed as “Inactive”. Also, in assay [2], the “EP EC50” value is recorded as “Inactive”. For the same molecule, the “G3-MB EC50” value in assay [3] is given as “Inactive”.
In the case of `Nc1nccc2c1ncn2C1C=C(CO)C(O)C1O` (stereo not shown) [3-Deazaneplanocin A], the values for the EC50 in assay [1] (Mus musculus), in assay [2] (Mus musculus) and in assay [3] (Mus musculus) were 310 nM, 110 nM and 360 nM, respectively.
With `Cc1sc2c(c1C)C(c1ccc(Cl)cc1)=N[C@@H](CC(=O)OC(C)(C)C)c1nnc(C)n1-2` [JQ1], the EC50 in assay [1] is over 5600 nM; in assay [2], 1700 nM; in assay [3], 700 nM.
Consider `O=C(CCCCCCC(=O)Nc1ccccc1)NO` [SAHA (Vorinostat), Vorinostat], for which the “G3-MB EC50” value in assay [3] is listed as “Inactive”.
For `CCNC(=O)C[C@@H]1N=C(c2ccc(Cl)cc2)c2cc(OC)ccc2-n2c(C)nnc21` [I-BET], the EC50 in assay [1] was over 5500 nM; in assay [2], 4100 nM; in assay [3], 900 nM.
For `Nc1ncn([C@@H]2O[C@H](CO)[C@@H](O)[C@H]2O)c(=O)n1` [5-Azacytidine], the results for the EC50 in assay [1] (Mus musculus) and in assay [2] (Mus musculus) were 1080 nM and 5300 nM, respectively. Also, in assay [3], the “G3-MB EC50” value is “Inactive”.
